Columns and labels:
T47D cells = test: MTT cytotoxicity assay; type: cell-based, human; settings: for Survival (%) of T47D cells: MTT; for IC50: MTT assay, calculated after two days exposure
Experimental: (§1) The human breast cancer T47D and MCF-7 cell lines were obtained from Pasteur Institute Cell Bank of IRAN (Tehran, IRAN). Cells were maintained in RPMI-1640(Gibco, UK) culture medium supplemented with 10% fetal bovine serum (Gibco, UK) and 100 U Ml^-1 of penicillin and […] of streptomycin (Gibco, UK) at 37 C in 5% CO2 incubator. All reagent and chemicals used in this experiment were of cell culture or molecular biology grade, purchased from different international sources.
(§2) The MTT (3-[4, 5-dimethylthiazol-2-yl]-2,5-diphenyl tetrazolium bromide) based assay was performed by seeding 5000 cells (T47D and MCF-7) per 180 µL RPMI complete culture medium in each well of 96-well culture plates. The day after seeding, culture medium was changed with medium containing standard anti-tumor drug Doxorubicin as well as different concentrations of newly synthesized compounds and RPMI control (no drug). Cells were then incubated at 37 °C in 5% Co2 incubator for 48h and 72h. Then 25 µL of MTT solution (4mg Ml^-1) were added to each well and further incubated at 37 °C for 3h. At the end of incubation, formazan crystals were dissolved in 100 µL of DMSO and plates were read in a plate reader (TECAN, Austria) at 540 nm. This experiment was performed in triplicate determination each time ([18],[19]).

MCF-7 cells = test: MTT cytotoxicity assay; type: cell-based, human; settings: for Survival (%) of MCF-7 cells: MTT; for IC50: Homo sapiens, MCF7, 48 h, MTT assay, calculated after two days exposure
Experimental: as §1, §2

COX-2 = molecular target: T1, COX-2 (Ovis aries, UniProt P79208); test: biochemical; settings: for Selectivity Index (COX-1 IC50/COX-2 IC50): in-vitro COX-2 selectivity index; for IC50: ovine COX-1/COX-2 assay kit, means of two determinations
T1 construct: purchased Cayman Chemical
T1 sequence (P79208 17-603): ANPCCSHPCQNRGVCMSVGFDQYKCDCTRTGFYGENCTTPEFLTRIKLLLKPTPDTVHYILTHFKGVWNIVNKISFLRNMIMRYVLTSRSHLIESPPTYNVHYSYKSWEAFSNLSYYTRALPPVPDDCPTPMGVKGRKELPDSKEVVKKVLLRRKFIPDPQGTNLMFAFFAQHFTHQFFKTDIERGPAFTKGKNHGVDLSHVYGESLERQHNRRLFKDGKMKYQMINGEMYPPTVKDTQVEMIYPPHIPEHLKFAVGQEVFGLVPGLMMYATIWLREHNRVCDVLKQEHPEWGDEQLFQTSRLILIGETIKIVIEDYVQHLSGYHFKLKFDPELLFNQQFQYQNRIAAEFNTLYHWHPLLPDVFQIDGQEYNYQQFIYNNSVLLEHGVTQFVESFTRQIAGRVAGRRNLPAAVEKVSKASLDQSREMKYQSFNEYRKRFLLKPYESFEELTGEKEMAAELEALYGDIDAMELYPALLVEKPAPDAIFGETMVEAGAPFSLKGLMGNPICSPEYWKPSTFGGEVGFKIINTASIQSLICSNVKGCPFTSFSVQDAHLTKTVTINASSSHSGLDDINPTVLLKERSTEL
Experimental: (§3) In-vitro cyclooxygenase (COX) inhibition assays
(§4) The assay was performed using an enzyme chemiluminescentkit (Cayman Chemical, MI, USA) according to our previously reportedmethod([17])The Cayman chemical chemiluminescent COX
(§5) (ovine) inhibitor screening assay utilizes the heme-catalyzedhydroperoxidase activity of ovine cyclooxygenases to generateluminescence in the presence of a cyclic naphthalene hydrazideand the substrate arachidonic acid. Arachidonate-induced luminescencewas shown to be an index of real-time catalytic activity anddemonstrated the turnover inactivation of the enzyme. Inhibition

COX-1 = molecular target: T2, COX-1 (Ovis aries, UniProt P05979); test: biochemical; settings: ovine COX-1/COX-2 assay kit; means of two determinations
T2 construct: purchased Cayman Chemical
T2 sequence (P05979 25-600): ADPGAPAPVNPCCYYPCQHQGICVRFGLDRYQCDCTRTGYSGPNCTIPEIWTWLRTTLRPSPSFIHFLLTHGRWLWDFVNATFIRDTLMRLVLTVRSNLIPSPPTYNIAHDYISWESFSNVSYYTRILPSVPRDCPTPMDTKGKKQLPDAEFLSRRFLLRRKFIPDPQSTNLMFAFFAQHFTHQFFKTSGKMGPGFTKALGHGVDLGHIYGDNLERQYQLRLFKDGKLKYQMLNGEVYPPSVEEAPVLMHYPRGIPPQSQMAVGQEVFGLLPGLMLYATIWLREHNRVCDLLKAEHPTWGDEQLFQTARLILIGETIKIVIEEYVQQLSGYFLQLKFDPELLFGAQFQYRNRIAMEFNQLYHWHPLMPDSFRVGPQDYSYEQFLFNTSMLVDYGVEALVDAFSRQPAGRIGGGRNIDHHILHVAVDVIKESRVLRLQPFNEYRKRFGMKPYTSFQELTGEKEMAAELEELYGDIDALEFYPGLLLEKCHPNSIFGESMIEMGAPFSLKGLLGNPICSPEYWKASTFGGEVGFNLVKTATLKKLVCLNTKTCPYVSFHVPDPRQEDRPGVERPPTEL
Experimental: as §3, §4, §5

SMILES | melting point | Selectivity Index (COX-1 IC50/COX-2 IC50) (COX-2) | IC50 (COX-2) | IC50 (COX-1) | Survival (%) of T47D cells (T47D cells; 25 µM compound, 48 h exposure) | Survival (%) of T47D cells (T47D cells; 25 µM compound, 72 h exposure) | IC50 (T47D cells; Homo sapiens, T47D, 48 h) | IC50 (T47D cells) | Survival (%) of MCF-7 cells (MCF-7 cells; 10 µM compound, 48 h exposure) | Survival (%) of MCF-7 cells (MCF-7 cells; 10 µM compound, 72 h exposure) | IC50 (MCF-7 cells) | Survival (%) of T47D cells (T47D cells; doxorubicin at 100 nM, 48 h) | Survival (%) of T47D cells (T47D cells; doxorubicin at 100 nM, 72 h) | Survival (%) of MCF-7 cells (MCF-7 cells; doxorubicin at 250 nM (column head says 10 µM), 48 h) | Survival (%) of MCF-7 cells (MCF-7 cells; doxorubicin at 250 nM (column head says 10 µM), 72 h)
CS(=O)(=O)c1ccc(-c2cc(Cn3ccnc3)c3cccc(-c4ccccc4)c3n2)cc1 [Compound 9a, 4-((1H-Imidazol-1-yl)methyl)-2-(4-methylsulfonylphenyl)-8-phenyl-quinoline] | 196 to 198 °C | 423.9 | 0.071 µM | 30.1 µM | 33.8% | 25.4% | ≤ 25 µM | < 25 µM | 38.3% | 26.7% | < 10 µM | – | – | – | –
COc1cccc2c1C(=O)c1c(O)c3c(c(O)c1C2=O)C[C@@](O)(C(=O)CO)C[C@@H]3O[C@H]1C[C@H](N)[C@H](O)[C@H](C)O1 [Doxorubicin, reference compound] | – | – | – | – | – | – | 0.1 µM | – | – | – | 0.25 µM | 53.2% | 27.1% | 50.2% | 31.7%
CS(=O)(=O)c1ccc(-c2cc(Cn3ccnc3)c3ccc4ccccc4c3n2)cc1 [Compound 9c, 4-((1H-Imidazol-1-yl)methyl)-2-(4-methylsulfonylphenyl)-benzo[h]-quinoline] | 216 to 217 °C | 527.9 | 0.068 µM | 35.9 µM | 75.8% | 68.9% | 50 µM | – | 48.4% | 41.3% | 10 µM | – | – | – | –
Cc1ccc2c(Cn3ccnc3)cc(-c3ccc(S(C)(=O)=O)cc3)nc2c1C [Compound 9b, 4-((1H-Imidazol-1-yl)methyl)-2-(4-methylsulfonylphenyl)-7,8-dimethyl-quinoline] | 218 to 219 °C | 288.9 | 0.09 µM | 26 µM | 66.2% | 69.5% | 50 µM | – | 61% | 47.2% | – | – | – | – | –

Further lines, with some results ahead:

melting point | Selectivity Index (COX-1 IC50/COX-2 IC50) (COX-2) | IC50 (COX-2) | IC50 (COX-1) | SMILES | Survival (%) of T47D cells (T47D cells; 25 µM compound, 48 h exposure) | Survival (%) of T47D cells (T47D cells; 25 µM compound, 72 h exposure) | IC50 (T47D cells; Homo sapiens, T47D, 48 h) | IC50 (T47D cells) | Survival (%) of MCF-7 cells (MCF-7 cells; 10 µM compound, 48 h exposure) | Survival (%) of MCF-7 cells (MCF-7 cells; 10 µM compound, 72 h exposure) | IC50 (MCF-7 cells) | Survival (%) of T47D cells (T47D cells; doxorubicin at 100 nM, 48 h) | Survival (%) of T47D cells (T47D cells; doxorubicin at 100 nM, 72 h) | Survival (%) of MCF-7 cells (MCF-7 cells; doxorubicin at 250 nM (column head says 10 µM), 48 h) | Survival (%) of MCF-7 cells (MCF-7 cells; doxorubicin at 250 nM (column head says 10 µM), 72 h)
247 to 248 °C | 547.6 | 0.063 µM | 34.5 µM | CS(=O)(=O)c1ccc(-c2cc(Cn3ccnc3)c3ccc4c(c3n2)CCCC4)cc1 [Compound 9d, 4-((1H-Imidazol-1-yl)methyl)-7,8,9,10-tetrahydro-2-(4-methylsulfonylphenyl)-benzo[h]-quinoline] | 49.1% | 26.1% | 25 µM | – | 4% | 0.7% | < 5 µM | – | – | – | –
189 to 190 °C | 179.9 | 0.072 µM | 13 µM | CS(=O)(=O)c1ccc(-c2cc(Cn3ccnc3)c3ccccc3n2)cc1 [Compound 9e, 4-((1H-Imidazol-1-yl)methyl)-2-(4-methylsulfonylphenyl)-quinoline] | 47.4% | 47.5% | 50 µM | 25 µM | 67.2% | 58.2% | – | – | – | – | –

Source: paper PMC4986100, “Design, Synthesis and Biological Evaluation of4-(Imidazolylmethyl)-2-(4-methylsulfonyl phenyl)-Quinoline Derivatives as Selective COX-2 Inhibitors and In-vitro Anti-breast Cancer Agents” (Iranian Journal of Pharmaceutical Research : IJPR, 2016)
